The compounds below were run against T1, DOCK1 (DHR-2 domain) (Homo sapiens, UniProt Q14185) (assay: In vitro GEF assay: Rac activation by DOCK1 DHR-2 domain). Details: in words, GEF assay.
T1 construct: polypeptide fragments corresponding to the DHR-2 domain of DOCK1 or DOCK2 from mice and humans; Histidine-SUMO (N); made in house; host or cells: E. coli Arctic express (DE3)
T1 sequence (Q14185 1207-1617 limits assumed): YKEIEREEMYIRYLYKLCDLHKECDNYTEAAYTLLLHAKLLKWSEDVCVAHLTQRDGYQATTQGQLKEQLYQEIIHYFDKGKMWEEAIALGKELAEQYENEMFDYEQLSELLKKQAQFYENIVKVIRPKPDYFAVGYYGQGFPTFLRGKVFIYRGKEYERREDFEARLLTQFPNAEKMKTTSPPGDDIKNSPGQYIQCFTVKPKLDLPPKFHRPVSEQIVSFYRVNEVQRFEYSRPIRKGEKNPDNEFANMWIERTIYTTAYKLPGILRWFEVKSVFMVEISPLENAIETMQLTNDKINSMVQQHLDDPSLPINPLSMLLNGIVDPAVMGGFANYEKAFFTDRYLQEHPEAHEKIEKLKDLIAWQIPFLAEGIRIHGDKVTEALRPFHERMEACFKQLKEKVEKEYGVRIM
Type: biochemical, mice and humans
Description: DOCK1 and DOCK2, i.e., DOCK-A subfamily members, both activate Rac by catalyzing the GTP-GDP exchange reaction for Rac via their DHR-2 domains. Therefore, in this Pharmacological Test, the inhibitory effect of the compounds of the present invention on Rac activation by DOCK1 or DOCK2 was assessed in an in vitro GEF assay by using polypeptide fragments corresponding to the DHR-2 domain of DOCK1 or DOCK2 from mice and humans. The in vitro GEF assay was performed using a labeled GTP (Bodipy-FL-GTP, Invitrogen), which has a property of increasing the fluorescence intensity when bound to Rac.
The polypeptide fragments corresponding to the DHR-2 domain of DOCK1 or DOCK2 were prepared by expression in E. coli Arctic express (DE3) cells as N-terminal. Histidine-SUMO tag-fused recombinant proteins, followed by purification by affinity column chromatography on nickel-NTA columns.
Rac was prepared by expression in E. coli BL21 (DE3) cells as an N-terminal GST tag-fused recombinant protein, followed by purification by affinity column chromatography on glutathione-Sepharose columns.
Each of the polypeptide fragments corresponding to the DHR-2 domain of DOCK1 or DOCK2, and a predetermined concentration of each test compound (the compounds of the present invention: 33 types of compounds; and comparative compound: TBOPP) dissolved in DMSO were incubated in a reaction solution A (pH 7.0), which contained 20 mM of MES-NaOH, 150 mM of NaCl, 10 mM of MgCl2, and 20 μM of GDP for 20 minutes at room temperature while being shielded from light to thus prepare GEF pretreated products. The final concentration of DMSO was adjusted to 1 mass % in all of the test samples. For a control test, a GEF pretreated product (control) was prepared by incubation in the same manner using DMSO with no test compounds, instead of the DMSO used above in which each test compound was dissolved.
Separately, Rac was added to the reaction solution A (pH 7.0) to a concentration of 15 μM, and was allowed to stand on for 30 min to form a GDP-Rac complex. Bodipy-FL-GTP was added to a concentration of 3.6 μM to 100 μL of the reaction solution A that contained the thus-prepared GDP-Rac complex, and equilibrated at 30° C. for 2 minutes. After equilibration, 50 μL of the GEF pretreated product prepared as described above was added and reacted at 30° C.
Changes in fluorescence intensity of Bodipy-FL-GTP in the reaction solutions were monitored using an EnSpire spectrofluorometer (Perkin Elmer) (excitation wavelength: 488 nm, fluorescence wavelength: 514 nm). The measured values were corrected so that the fluorescence intensity at the beginning of the reaction (0 sec) was 0. Then, an approximate curve (hyperbola) was obtained by plotting the calculated correction values on the y-axis and the time (t) on the x-axis using GraphPad Prism5 (GraphPad software), and the slope at t=0 to 10 seconds was defined as the initial velocity of the guanine nucleotide exchange reaction. The IC50 value was calculated taking the initial reaction velocity of the control, to which only a solvent (DMSO) was added, as 100%.
Based on the obtained results, columns A and B of FIG. 1, FIG. 2, FIG. 3-1, and FIG. 3-2 show the results evaluating the inhibitory effect on Rac activation by DOCK1 (DHR-2 domain) (IC50 value), and DOCK1-selective inhibitory effect (DOCK1/DOCK2 selectivity) of each test compound. The inhibitory effect on Rac activation by DOCK1 (DHR-2 domain) (IC50 value) was determined from the reaction inhibition curve plotted using values of Rac activation by the DOCK1 DHR-2 domain in the presence of various concentrations of the test compounds, taking the values of the control as 100%. […]

SMILES | DOCK1-inhibiting activity compared with TBOPP | selective inhibitory activity against DOCK1 compared to TBOPP
O=c1ccc(S(=O)(=O)N2CCCC2)cn1CC(O)c1ccc(-c2cccc(C(F)(F)F)c2)cc1O (stereo not drawn) [AK-16, 1-(2-hydroxy-2-(3-hydroxy-3′-(trifluoromethyl)-[1,1′-biphenyl]-4-yl)ethyl)-5-(pyrrolidin-1-yl-sulfonyl)pyridin-2(1H)-one] | slightly lower DOCK1-inhibiting activity | higher selective inhibitory activity against DOCK1
O=S(=O)(c1cc(CO)n(CC(O)c2ccc(-c3cccc(C(F)(F)F)c3)cc2)c1)N1CCCC1 (stereo not drawn) [HS-14, 2-(2-(hydroxymethyl)-4-(pyrrolidin-1-yl-sulfonyl)-1H-pyrrol-1-yl)-1-(3′-(trifluoromethyl)-[1,1′-biphenyl]-4-yl)ethan-1-ol] | slightly lower DOCK1-inhibiting activity | higher selective inhibitory activity against DOCK1

Same assay, conditions: in words, GEF assay DOCK1 vs DOCK2 DHR-2 domain

SMILES | selective inhibitory activity against DOCK1 versus DOCK2
CC1(C)Oc2cc(-c3cccc(C(F)(F)F)c3)ccc2C(Cn2cc(S(=O)(=O)N3CCCC3)ccc2=O)O1 (stereo not drawn) [AK-17, 1-((2,2-dimethyl-7-(3-(trifluoromethyl)phenyl)-4H-benzo[d][1,3]dioxin-4-yl)methyl)-5-(pyrrolidin-1-yl-sulfonyl)pyridin-2(1H)-one] | higher selective inhibitory activity against DOCK1 than against DOCK2
CN(C)C(=O)c1cc(S(=O)(=O)N2CCCC2)cn1CC(=O)c1ccc(-c2cccc(C(F)(F)F)c2)cc1 [RT-23, N,N-dimethyl-1-(2-oxo-2-(3′-(trifluoromethyl)-[1,1′-biphenyl]-4-yl)ethyl)-4-(pyrrolidin-1-yl-sulfonyl)-1H-pyrrole-2-carboxamide] | higher selective inhibitory activity against DOCK1 than against DOCK2
O=S(=O)(c1cc(CO)n(CC(O)c2ccc(-c3cccc(C(F)(F)F)c3)cc2)c1)N1CCCC1 (stereo not drawn) [HS-14, 2-(2-(hydroxymethyl)-4-(pyrrolidin-1-yl-sulfonyl)-1H-pyrrol-1-yl)-1-(3′-(trifluoromethyl)-[1,1′-biphenyl]-4-yl)ethan-1-ol] | higher selective inhibitory activity against DOCK1 than against DOCK2
O=C(Cn1cc(S(=O)(=O)N2CCC(c3ccc(-c4ccccc4)cc3)CC2)ccc1=O)c1ccc(-c2cccc(C(F)(F)F)c2)cc1 [KS-43, 5-((4-([1,1′-biphenyl]-4-yl)piperidin-1-yl)sulfonyl)-1-(2-oxo-2-(3′-(trifluoromethyl)-[1,1′-biphenyl]-4-yl)ethyl)pyridin-2(1H)-one] | higher selective inhibitory activity against DOCK1 than against DOCK2
O=C(Cn1cc(S(=O)(=O)N2CCCC2)ccc1=O)c1ccc(-c2cccc(C(F)(F)F)c2)cc1OCCc1ccccc1 [AK-24, 1-(2-oxo-2-(3-phenethoxy-3′-(trifluoromethyl)-[1,1′-biphenyl]-4-yl)ethyl)-5-(pyrrolidin-1-yl-sulfonyl)pyridin-2(1H)-one] | higher selective inhibitory activity against DOCK1 than against DOCK2
O=C(Cn1cc(S(=O)(=O)N2CCC(c3ccc(-c4c5ccccc5cc5ccccc45)cc3)CC2)ccc1=O)c1ccc(-c2cccc(C(F)(F)F)c2)cc1 [KS-47, 5-((4-(4-(anthracen-9-yl)phenyl)piperidin-1-yl)sulfonyl)-1-(2-oxo-2-(3′-(trifluoromethyl)-[1,1′-biphenyl]-4-yl)ethyl)pyridin-2(1H)-one] | higher selective inhibitory activity against DOCK1 than against DOCK2
CCCCCCOc1cc(-c2cccc(C(F)(F)F)c2)ccc1C(=O)C(CCCCCC)n1cc(S(=O)(=O)N2CCCC2)ccc1=O (stereo not drawn) [AK-23, 1-(1-(3-(hexyloxy)-3′-(trifluoromethyl)-[1,1′-biphenyl]-4-yl)-1-oxooctan-2-yl)-5-(pyrrolidin-1-yl-sulfonyl)pyridin-2(1H)-one] | higher selective inhibitory activity against DOCK1 than against DOCK2
CC(=O)Oc1cc(-c2ccc(-c3cccc(C(F)(F)F)c3)cc2)cn2cc(S(=O)(=O)N3CCCC3)cc12 [HS-20, 2-(pyrrolidin-1-yl-sulfonyl)-6-(3′-(trifluoromethyl)-[1,1′-biphenyl]-4-yl)-indolizin-8-yl acetate] | higher selective inhibitory activity against DOCK1 than against DOCK2
O=C(Cn1cc(S(=O)(=O)N2CCC(c3ccc(-c4ccc5c(c4)Cc4ccccc4-5)cc3)CC2)ccc1=O)c1ccc(-c2cccc(C(F)(F)F)c2)cc1 [KS-46, 5-((4-(4-(9H-fluoren-2-yl)phenyl)piperidin-1-yl)sulfonyl)-1-(2-oxo-2-(3′-(trifluoromethyl)-[1,1′-biphenyl]-4-yl)ethyl)pyridin-2(1H)-one] | higher selective inhibitory activity against DOCK1 than against DOCK2
O=C(Cn1cc(S(=O)(=O)N2CCCC2)ccc1=O)c1ccc(-c2cccc(C(F)(F)F)c2)cc1O [AK-15, 1-(2-(3-hydroxy-3′-(trifluoromethyl)-[1,1′-biphenyl]-4-yl)-2-oxoethyl)-5-(pyrrolidin-1-yl-sulfonyl)pyridin-2(1H)-one] | higher selective inhibitory activity against DOCK1 than against DOCK2

Each compound was assayed on mouse lung carcinoma cell line (3LL cells) (assay: Cell invasion inhibition assay (Matrigel invasion chamber)). Details: in words.
Type: cell-based
Description: In this Pharmacological Test, the inhibitory effect of each test compound on cell invasion response was evaluated using a mouse lung carcinoma cell line (3LL cells), a mouse pancreatic cancer cell line (PANC02 cells), and a human breast cancer cell line (MDA-MB-157 cells). Of these, the mouse lung carcinoma cell line (3LL) is a cancer cell line with mutant Ras (K-Ras (G12C)), and the human breast cancer cell line (MDA-MB-157) is a cancer cell line with mutant Rac (Rac1 (P29S)). The experiments were performed in BD BioCoat Matrigel invasion chambers (BD Biosciences).
Specifically, an upper chamber with a Matrigel-coated membrane insert (8 μm pores) at the bottom was equilibrated with DMEM (serum-free medium) for 120 minutes. Thereafter, 300 μL of a suspension of a cancer cell line in DMEM (serum-free) was placed in the upper chamber while 500 μL of DMEM (with 10 mass % FCS) was placed in the lower chamber. Each test compound dissolved in DMSO at a predetermined concentration was added to both the culture media in the upper and lower chambers. As a control, DMSO alone was added to both the culture media in the upper and lower chambers. In all of the experiments, the final DMSO concentration in the culture media was adjusted to 0.2 mass %.
The resulting products were cultured under 5% CO2 at 37° C. for 22 hours (3LL and PANC02 cells) or 48 hours (MDA-MB-157 cells). Then, the upper chamber was removed, and the culture medium was removed. Thereafter, non-invading cells remaining in the upper chamber were removed using a cotton swab, and the cells remaining outside the bottom of the upper chamber (cells that had invaded into the Matrigel, and passed through the membrane insert) were stained with Diff-Quick (Sysmex). After staining, the membrane inserts with Matrigel were cut out using a scalpel to prepare slides, and the number of invading cells was counted under an optical microscope.
The results were evaluated based on percent cell invasion (%: Invasion) and percent inhibition (%: Inhibition). The percent cell invasion was obtained by converting the number of invading cells in the presence of each test compound into a percentage, taking the number of invading cells in the control test, in which DMSO was added alone, as 100%; and the percent inhibition was obtained by deducting the percent cell invasion from 100.

SMILES | percent cell invasion inhibition compared with TBOPP
Cc1cc(-c2ccc(C(=O)Cn3cc(S(=O)(=O)N4CCCC4)ccc3=O)cc2)ccc1N(C)C [KS-16, 1-(2-(4′-(dimethylamino)-3′-methyl-[1,1′-biphenyl]-4-yl)-2-oxoethyl)-5-(pyrrolidin-1-yl-sulfonyl)pyridin-2(1H)-one] | higher percent cell invasion inhibition than TBOPP

Reference: patent US20220017486A1, “DOCK1-INHIBITING COMPOUND AND USE THEREOF” (KYUSHU UNIVERSITY, NATIONAL UNIVERSITY CORPORATION, priority 2018, published 2022)
